The source of these data is patent publication US20050267072A1, “Pharmaceutical compositions containing dually acting inhibitors of neutral endopeptidase for the treatment of sexual dysfunction” (Solvay Pharmaceuticals GmbH, priority 2004, published 2005).

Where two headings read alike, the source gives them in different places.

Test [1] has as its target T1, hSEP (His6-tagged hSEP ectodomain) (Homo sapiens, UniProt Q495T6).
T1 construct: His6-tagged hSEP ectodomain; His6; purchased Innogenetics, Ghent, Belgium
T1 sequence (Q495T6 49-779 limits assumed): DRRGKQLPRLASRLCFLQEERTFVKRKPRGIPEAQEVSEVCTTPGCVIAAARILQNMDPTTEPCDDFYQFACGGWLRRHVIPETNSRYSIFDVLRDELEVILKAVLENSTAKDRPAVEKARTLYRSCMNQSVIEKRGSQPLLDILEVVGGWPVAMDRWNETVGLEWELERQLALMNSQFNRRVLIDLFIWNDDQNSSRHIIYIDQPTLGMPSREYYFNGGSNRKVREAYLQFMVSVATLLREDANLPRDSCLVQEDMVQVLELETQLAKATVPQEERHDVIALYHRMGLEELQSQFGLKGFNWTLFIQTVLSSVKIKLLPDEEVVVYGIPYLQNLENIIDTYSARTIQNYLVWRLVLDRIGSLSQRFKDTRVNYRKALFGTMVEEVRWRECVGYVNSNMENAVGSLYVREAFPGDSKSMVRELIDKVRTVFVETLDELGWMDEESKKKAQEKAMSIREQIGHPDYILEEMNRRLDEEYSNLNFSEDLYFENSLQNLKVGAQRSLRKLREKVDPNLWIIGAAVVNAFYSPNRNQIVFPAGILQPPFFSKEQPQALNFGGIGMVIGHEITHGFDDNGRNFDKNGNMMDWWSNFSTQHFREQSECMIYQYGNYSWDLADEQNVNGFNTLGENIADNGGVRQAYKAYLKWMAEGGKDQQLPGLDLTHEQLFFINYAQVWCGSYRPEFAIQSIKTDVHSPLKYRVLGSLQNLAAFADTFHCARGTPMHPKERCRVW
The experiment in a line: Activity assay: breakdown of VIP and CNP by hSEP. It counts as biochemical. Particulars: 120 min at 37° C., no inhibitor. As to the method: (§1) • a) hSEP (sol hu)(his)6; or: His6-tagged hSEP ectodomain. • stock solution: 53 μg/ml in 20 mM HEPES pH 7.2, 5% glycerol, 0.005% Tween20, 100 mM NaCl, purity>99% • working solution: stock solution diluted with assay buffer to 5 μg/ml • Supplier: Innogenetics, Ghent, Belgium. Preparation and purification of the protein were performed as described in WO 02/094176. • b) NEP (prepared from pig kidney cortex) • stock solution: 120 μg/ml in 20 mM bisTris, purity>95% • working solution: stock solution diluted with assay buffer to 5 μg/ml • Supplier: Dr. Philippe Crine, Univ. of Montreal, Canada Substrates: • a) VIP • b) CNP (32-53) • stock solution: 100 μM in assay buffer • Supplier: Bachem, Weil am Rhein, Germany
(§2) Assay buffer: 100 mM Tris pH 7.0, 250 mM NaCl
(§3) 80 μl of assay buffer, 10 μl of enzyme working solution (NEP or hSEP) and 10 μl of peptide stock solution (VIP or CNP) were mixed in an Eppendorf vial and incubated for 120 min. at 37° C. The enzymatic reaction was subsequently terminated by heating to 95° C. for 5 min. […]
(§4) All peptides were detected by absorbance at 214 nm (UV spectroscopy).
(§5) The percentage (=%) of hydrolysis was calculated on the basis of the peak area of the undegraded peptide for an enzyme containing sample Y in correlation to a sample containing the same concentration of peptide without enzyme (blank) by the following equation: % hydrolysis=100*(blank−Y) […]

Test [2] concerns the target T2, NEP (prepared from pig kidney cortex) (Sus scrofa, UniProt A0A4X1SQE6). Briefly: Activity assay: breakdown of VIP and CNP by NEP. It counts as biochemical. Particulars: 120 min at 37° C., no inhibitor. As to the method: as §1, §2, §3, §4, §5
The subject of the next test is patients with ED. Particulars: intracavernosal injection, combined with the α-adrenoceptor antagonist phentolamine; cited from earlier work.
The next test relates to human corpus cavernosum. The experiment in a line: Big-ET-induced contraction of human cavernosal strips in vitro. It counts as cell-based. Particulars: compounds at 10 μM, 20 min incubation; big-ET-1 10^−8 M; mean of n corpus cavernosum samples. As to the method:
2. Influence of Test Compounds on Big-ET-Induced Contraction of Human Cavernosal Strips In Vitro
Human erectile tissues were obtained from the corpus cavernosum of 9 patients undergoing surgery for implantation of penile prosthesis as treatment of erectile dysfunction or penile congenital curvature. After surgery, the tissue samples were transported and stored at 4° C. in RPMI-1640 medium containing HEPES (23.8 mM), penicillin (100 IU/ml) and streptomycin (0.1 mg/ml) until use (within 24 hours). Eight sections of 4×2×2 mm were excised from the corpus cavernosum of each donor for each experiment. Cavernosal strips were suspended in 5 ml organ chambers filled with Krebs-HEPES buffer. Organ chambers were maintained at 37° C. and continuously bubbled with 95% O2 and 5% CO2 to maintain a pH at 7.4. The cavernosal strips were connected to force transducers for isometric tension recording (Pioden controls Ltd, UK), and an initial tension of 1 g was applied. Following amplification, the tension changes were digitalized via a Mac Lab™/8 using Chart software (AD Instruments Ltd). The tissue preparation were allowed to equilibrate for 90 minutes, while being washed periodically (every 15 minutes) with fresh Krebs-HEPES buffer. When a stable resting tension was attained, the strips were set to at least 500 mg of basal tension. Following the equilibration period, the erectile tissues were primed with KCl 80 mM during 10 min. Once this priming period was achieved, the strips were washed by fresh Krebs-HEPES solution and allowed to re-equilibrate for 30 minutes at 500 mg of tension.
Once the strips were stabilized after the priming period, they were incubated with one of the following compounds (all at 10 μM, unless indicated otherwise) during 20 min: compound of Formula IV, compound of Formula V, SM-19712 (a selective and potent endothelin converting enzyme-1 inhibitor), DL-thiorphan (a selective and potent NEP inhibitor), and the combination of SM-19712, 10 μM and DL-thiorphan, and the common vehicle (phosphate buffer).
The strips were then exposed to the half-maximally effective concentration of big-ET-1 (10^−8 M) determined in the preliminary experiments until a stable response was obtained.
Contractile responses were expressed as absolute change in maximal developed tension (in mg). To reduce the potential heterogeneity of responses between strips, the contraction to big-ET-1 was normalized by the contractile responses to KCl 80 mM obtained during the priming period.
The results are from duplicate or triplicate determinations from a single corpus cavernosum sample were averaged and values are expressed as percentage of the contractile responses induced by 80 mM of KCl, as mean […]SEM, for n corpus cavernosum samples.

In test [3] the target is T1, hSEP (His6-tagged hSEP ectodomain). The experiment in a line: Inhibition of enzymatic breakdown of CNP and VIP by hSEP (in vitro enzymatic assay, HPLC). It counts as biochemical. Particulars: 15 min preincubation, 60 min at 37° C. Here is the method:
(§6) 1. Inhibition of Enzymatic Breakdown of CNP and VIP by the Test Compounds
(§7) The inhibition of the enzymatic breakdown of CNP and VIP by the test compounds of Formula I according to the invention was measured in an enzymatic in vitro assay according to the following protocol:
as §1, §2
(§8) All test compounds were dissolved in DMSO at 10 mM and further diluted with assay buffer.
(§9) 70 μl of assay buffer, 10 μl of enzyme working solution (NEP or hSEP) and 10 μl of a test compound solution were mixed in an Eppendorf vial and preincubated at 37° C. for 15 minutes. Then, 10 μl of peptide stock solution (VIP or CNP) was added and the reaction mixture was incubated at 37° C. for 60 min. to allow enzymatic hydrolysis. The enzymatic reaction was subsequently terminated by heating to 95° C. for 5 min. After centrifugation (Heraeus Biofuge B, 3 min) the supernatant was subjected to HPLC.
(§10) For separating the remaining substrate from the cleavage products, a reversed phase HPLC technique with a CC 125/4 Nucleosil 300/5 C18 RP column and a CC 8/4 Nucleosil 100/5 C18 precolumn (Macherey-Nagel, Duren, Germany) was used. 60 μl of the reaction samples were injected into the HPLC and the column was eluted at a flow rate of 1 ml/min with the following gradient: […]
as §4
(§11) Basis of the calculation of % inhibition is the peak area of the undegraded peptide (VIP or CNP) for an inhibitor containing sample X in comparison to samples containing only peptide (blank) or peptide and enzyme without inhibitor (control) according to the following equation: % inhib=100*(X−control)/(blank−control)
(§12) All samples were run in duplicate and mean values were used. A solvent control (0.1% DMSO) was added to each assay run.

Test [4] has as its target T2, NEP (prepared from pig kidney cortex). Briefly: Inhibition of enzymatic breakdown of CNP and VIP by NEP (in vitro enzymatic assay, HPLC). It counts as biochemical. Particulars: 15 min preincubation, 60 min at 37° C. As to the method:
as §6, §7, §1, §2, §8, §9, §10, §4, §11, §12

[5] abbreviates: substrate CNP (32-53), read-out: inhibition of breakdown of CNP by hSEP IC50.
Setting [6] is: substrate VIP, read-out: inhibition of breakdown of VIP by hSEP IC50.
[7] abbreviates: substrate CNP (32-53), read-out: inhibition of breakdown of CNP by NEP IC50.
The mark [8] stands for this setting: substrate VIP, read-out: inhibition of breakdown of VIP by NEP IC50.
Setting [9] is: inhibition of breakdown of CNP by NEP IC50, substrate CNP (32-53).
Setting [10] is: inhibition of breakdown of VIP by NEP IC50, substrate VIP.

T2 sequence (A0A4X1SQE6 entry or part of it): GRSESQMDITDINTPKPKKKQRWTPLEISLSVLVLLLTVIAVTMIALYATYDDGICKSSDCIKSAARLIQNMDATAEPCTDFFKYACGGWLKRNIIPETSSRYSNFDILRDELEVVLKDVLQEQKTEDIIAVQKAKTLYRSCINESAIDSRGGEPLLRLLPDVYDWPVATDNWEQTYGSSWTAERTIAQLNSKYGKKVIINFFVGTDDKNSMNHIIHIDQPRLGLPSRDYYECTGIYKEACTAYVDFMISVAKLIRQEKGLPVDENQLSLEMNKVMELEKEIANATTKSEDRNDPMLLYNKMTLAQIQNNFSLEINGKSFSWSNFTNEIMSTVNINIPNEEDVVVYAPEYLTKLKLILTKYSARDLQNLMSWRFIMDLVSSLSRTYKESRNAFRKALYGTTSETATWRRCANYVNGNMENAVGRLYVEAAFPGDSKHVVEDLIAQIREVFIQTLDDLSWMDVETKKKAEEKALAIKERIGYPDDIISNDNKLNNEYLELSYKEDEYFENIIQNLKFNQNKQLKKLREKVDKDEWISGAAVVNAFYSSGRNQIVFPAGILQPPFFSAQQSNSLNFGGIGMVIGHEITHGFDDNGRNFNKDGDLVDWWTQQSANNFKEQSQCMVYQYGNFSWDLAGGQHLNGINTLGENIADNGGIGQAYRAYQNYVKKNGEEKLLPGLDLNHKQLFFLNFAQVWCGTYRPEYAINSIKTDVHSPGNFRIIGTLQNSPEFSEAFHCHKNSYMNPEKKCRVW

For “VIP: vasoactive intestinal peptide, substrate, supplier Bachem”, in test [1], the “degradation at t = 2 h by hSEP” value was determined as 36%. In addition, in test [2], the “degradation at t = 2 h by NEP” value is 28%. Moreover, in the test on patients with ED, the “response rate (erections sufficient for sexual intercourse)” value is 67%.

In the case of `O=C(O)CN1C(=O)C(NC(=O)C2(CC(CCc3ccccc3)C(=O)O)CCCC2)CCc2ccccc21` (stereo not shown) [Cpd. of Formula IV, 2-[1-(1-carboxymethyl-2-oxo-2,3,4,5-tetrahydro-1H-benzo[b]azepin-3-ylcarbamoyl)-cyclopentylmethyl]-4-phenyl-butyric acid], the “Maximal big-ET-induced contraction” value with human corpus cavernosum is 32.80 percentage of the contractile responses induced by 80 mM of KCl.

In the case of `CCOC(=O)C(CCc1ccccc1)CC1(C(=O)NC2CCc3ccccc3N(CC(=O)O)C2=O)CCCC1` (stereo not shown) [compound of Formula II, 2-[1-(1-carboxymethyl-2-oxo-2,3,4,5-tetrahydro-1H-benzo[b]azepin-3-ylcarbamoyl)-cyclopentylmethyl]-4-phenyl-butyric acid ethyl ester], the IC50 in test [3] (setting [5]) came out at 0.7 nM; in test [3] (setting [6]), 3.5 nM; in test [4] (setting [7]) it was 7.5 nM; in test [4] (setting [8]), 3.3 nM.

Consider `O=C(O)CN1C(=O)C(NC(=O)C2(CC(CCc3cccc4ccccc34)C(=O)O)CCCC2)CCc2ccccc21` (stereo not shown) [cpd. of Formula V, 2-[1-(1-carboxymethyl-2-oxo-2,3,4,5-tetrahydro-1H-benzo[b]azepin-3-ylcarbamoyl)-cyclopentylmethyl]-4-naphthalen-1-yl-butyric acid], for which the “Maximal big-ET-induced contraction” value with human corpus cavernosum was 49.60 percentage of the contractile responses induced by 80 mM of KCl.

Take `CCOC(=O)[C@H](CCc1cccc2ccccc12)CC1(C(=O)N[C@H]2CCc3ccccc3N(CC(=O)O)C2=O)CCCC1` [compound of Formula III, {(3S)-3-[({1-[(2R)-2-(ethoxycarbonyl)-4-(1-naphthyl)butyl]cyclopentyl}carbonyl)amino]-2-oxo-2,3,4,5-tetrahydro-1H-1-benzazepin-1-yl}acetic acid]: the IC50 in test [3] (setting [5]) is 2.2 nM; in test [3] (setting [6]), 2.9 nM; in test [4] (setting [7]), 6.6 nM; in test [4] (setting [8]), 4.2 nM.

For the compound “CNP: C-type natriuretic peptide, substrate CNP (32-53), supplier Bachem”, the “degradation at t = 2 h by hSEP” value in test [1] is reported as 46%. Moreover, the “degradation at t = 2 h by NEP” value in test [2] amounted to 39%.

Turning to `CCOP(=O)(CC1(C(=O)N[C@H]2CCc3ccccc3N(CC(=O)OC(C)(C)C)C2=O)CCCC1)OCc1ccccc1` (stereo partly drawn) [compound 2, (3S)-(3-{[1-(Benzyloxy-ethoxy-phosphorylmethyl)-cyclopentanecarbonyl]-amino}-2-oxo-2,3,4,5-tetrahydro-benzo[b]azepin-1-yl)-acetic acid tert-butyl ester], the IC50 in test [3] (setting [5]) came to 2.8 nM; in test [3] (setting [6]), 4 nM; in test [4] (setting [9]) it was 2.3 nM; in test [4] (setting [10]) it was 1.6 nM.

On to `O=C(O)CNC(=O)C(CS)Cc1ccccc1` (racemic) [thiorphan, reference compound], for which the IC50 in test [3] (setting [5]) was more than 1000 nM; in test [3] (setting [6]), more than 1000 nM; in test [4] (setting [9]), 8.4 nM; in test [4] (setting [10]) it was 6.4 nM. The “Maximal big-ET-induced contraction” value with human corpus cavernosum is reported as 91.57 percentage of the contractile responses induced by 80 mM of KCl.

For the compound `Cc1nn(-c2ccccc2)c(NC(=O)NS(=O)(=O)c2ccc(Cl)cc2)c1C#N` [SM-19712, reference compound], the “Maximal big-ET-induced contraction” value in the test with human corpus cavernosum is 85.10 percentage of the contractile responses induced by 80 mM of KCl.
